Data reported in PMC4029172 (eLife, 2014).
≈ marks a conversion by molar mass, not a printed value. Numbered stars: 1 amine (or outer) side, 2 acyl side, 3 side chain; on linkers, the order of the positions; unused ones are H or OH. Bridge positions count the residues as written; N and C are the ends. Square brackets hold non-standard residues; d marks the D form. Peptide text beside a SMILES is read from it. * marks the point of attachment. X4 = CC(Oc1ccc(C(N[*:1])C(=O)[*:2])cc1)C(O)(C=CC(=O)[*:3])CCl; NMeF = CN[CH](Cc1ccccc1)C(=O)O; X3 = CC(C)C(O)C(C)C(=O)*

What was measured:
[1] = system: Moraxella catarrhalis ATCC 25238; assay: microbe, parasite or virus in culture; type: cell-based; conditions: ATCC25238
[2] = system: Haemophilus influenzae ATCC 49247; assay: microbe, parasite or virus in culture; type: cell-based; conditions: ATCC49247
[3] = target: Thermus thermophilus RNAP (Thermus thermophilus, UniProt Q8RQE8+Q8RQE9); assay: biochemical
[4] = system: Enterobacter cloacae ATCC 13047; assay: microbe, parasite or virus in culture; type: cell-based; conditions: ATCC13047

Thermus thermophilus RNAP, sequence (Q8RQE8 whole entry): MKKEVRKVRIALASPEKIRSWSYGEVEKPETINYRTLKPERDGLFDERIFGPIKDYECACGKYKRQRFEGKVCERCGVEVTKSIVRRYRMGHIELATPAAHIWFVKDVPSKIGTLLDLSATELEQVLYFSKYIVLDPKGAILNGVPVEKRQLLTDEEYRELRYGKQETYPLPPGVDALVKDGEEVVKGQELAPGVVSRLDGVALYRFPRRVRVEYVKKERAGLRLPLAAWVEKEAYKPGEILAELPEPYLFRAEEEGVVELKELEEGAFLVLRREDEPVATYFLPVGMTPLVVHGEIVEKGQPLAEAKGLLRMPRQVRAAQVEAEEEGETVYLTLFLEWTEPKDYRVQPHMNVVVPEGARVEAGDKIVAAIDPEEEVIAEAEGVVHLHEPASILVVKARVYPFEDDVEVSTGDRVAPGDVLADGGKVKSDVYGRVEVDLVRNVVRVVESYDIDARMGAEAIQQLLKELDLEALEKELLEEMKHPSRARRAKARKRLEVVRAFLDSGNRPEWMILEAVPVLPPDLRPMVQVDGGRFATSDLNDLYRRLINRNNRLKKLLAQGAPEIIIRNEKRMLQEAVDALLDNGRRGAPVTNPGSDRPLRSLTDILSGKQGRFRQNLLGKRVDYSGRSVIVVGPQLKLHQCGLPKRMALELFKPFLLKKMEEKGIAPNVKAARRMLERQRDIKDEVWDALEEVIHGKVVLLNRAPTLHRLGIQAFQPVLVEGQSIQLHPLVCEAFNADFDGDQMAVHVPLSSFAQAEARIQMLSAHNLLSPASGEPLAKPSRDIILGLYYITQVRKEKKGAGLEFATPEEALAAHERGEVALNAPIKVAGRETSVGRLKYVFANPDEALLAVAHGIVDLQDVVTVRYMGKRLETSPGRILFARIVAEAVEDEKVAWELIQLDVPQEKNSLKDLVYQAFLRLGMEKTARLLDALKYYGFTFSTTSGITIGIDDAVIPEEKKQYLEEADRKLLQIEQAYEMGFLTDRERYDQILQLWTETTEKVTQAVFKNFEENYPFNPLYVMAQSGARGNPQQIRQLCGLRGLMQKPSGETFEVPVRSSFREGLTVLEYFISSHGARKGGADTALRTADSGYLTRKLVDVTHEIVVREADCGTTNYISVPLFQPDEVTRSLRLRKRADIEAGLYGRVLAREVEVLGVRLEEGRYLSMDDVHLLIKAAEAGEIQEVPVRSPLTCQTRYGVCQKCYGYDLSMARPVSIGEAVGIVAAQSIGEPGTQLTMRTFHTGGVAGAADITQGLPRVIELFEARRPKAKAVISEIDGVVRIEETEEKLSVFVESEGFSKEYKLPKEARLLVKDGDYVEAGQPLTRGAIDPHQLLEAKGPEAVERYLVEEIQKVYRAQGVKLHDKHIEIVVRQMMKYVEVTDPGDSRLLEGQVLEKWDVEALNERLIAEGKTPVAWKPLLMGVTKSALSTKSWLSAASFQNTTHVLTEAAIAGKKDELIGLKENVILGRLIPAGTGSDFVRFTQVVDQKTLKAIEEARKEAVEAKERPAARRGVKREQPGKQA
Thermus thermophilus RNAP, sequence (Q8RQE9 whole entry): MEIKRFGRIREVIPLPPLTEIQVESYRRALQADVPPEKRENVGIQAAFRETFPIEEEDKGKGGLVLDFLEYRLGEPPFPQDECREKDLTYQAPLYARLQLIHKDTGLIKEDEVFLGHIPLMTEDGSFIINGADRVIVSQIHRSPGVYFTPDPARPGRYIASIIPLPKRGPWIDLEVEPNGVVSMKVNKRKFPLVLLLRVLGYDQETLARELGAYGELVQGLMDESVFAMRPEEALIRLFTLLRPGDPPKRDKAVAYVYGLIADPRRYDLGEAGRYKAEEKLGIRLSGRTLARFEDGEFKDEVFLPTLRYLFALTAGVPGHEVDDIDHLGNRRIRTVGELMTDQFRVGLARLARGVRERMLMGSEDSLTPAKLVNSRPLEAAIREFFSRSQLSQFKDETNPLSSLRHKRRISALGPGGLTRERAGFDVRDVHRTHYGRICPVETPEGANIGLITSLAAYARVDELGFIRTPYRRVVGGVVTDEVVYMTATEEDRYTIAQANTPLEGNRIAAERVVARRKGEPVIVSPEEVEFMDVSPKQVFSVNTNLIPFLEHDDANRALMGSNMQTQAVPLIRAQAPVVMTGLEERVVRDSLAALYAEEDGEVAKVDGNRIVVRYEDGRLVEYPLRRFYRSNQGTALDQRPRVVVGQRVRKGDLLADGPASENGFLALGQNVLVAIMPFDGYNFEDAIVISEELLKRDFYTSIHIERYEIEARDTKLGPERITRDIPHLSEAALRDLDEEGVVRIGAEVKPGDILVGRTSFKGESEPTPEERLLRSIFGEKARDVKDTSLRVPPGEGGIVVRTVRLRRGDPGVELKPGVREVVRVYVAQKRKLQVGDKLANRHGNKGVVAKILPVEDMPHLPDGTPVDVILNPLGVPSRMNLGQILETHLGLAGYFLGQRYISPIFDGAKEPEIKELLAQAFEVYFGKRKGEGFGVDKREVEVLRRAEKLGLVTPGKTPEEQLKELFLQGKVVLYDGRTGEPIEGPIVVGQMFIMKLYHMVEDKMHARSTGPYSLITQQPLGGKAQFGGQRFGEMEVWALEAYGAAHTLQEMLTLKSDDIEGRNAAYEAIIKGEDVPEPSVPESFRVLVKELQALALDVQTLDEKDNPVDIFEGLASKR

CCC(C)C1NC(=O)C(NC(=O)C(C)C(O)C(C)C)C(C)OC(=O)C2COC(=O)CNC(=O)C=CC(O)(CCl)C(C)Oc3ccc(cc3)C(NC1=O)C(=O)N(C)C(Cc1ccccc1)C(=O)NC(C(C)O)C(=O)N2 (stereo not shown) [SalB, salinamide B] (X3-TI[X4][NMeF]TS; ester 1-C; linker 3-6 via G; configuration not given here)
MIC [1]: > 50 µg/mL | MIC [2]: 12.5 µg/mL (≈ 11.8 µM) | IC50 [3]: > 100 µM | MIC [4]: 12.5 µg/mL (≈ 11.8 µM)
